# Experimental data as given in ChEMBL document CHEMBL6096721, “Discovery of Selenium-Containing Derivatives as Potent and Orally Bioavailable GLP-1R Agonists” (J Med Chem, 2025).
# Activity calls are given as the source filed them. No cut-off for these calls is given here.
# What was measured:
# [1] = target: T1, Glucagon-like peptide 1 receptor (Homo sapiens, UniProt P43220); test: Agonist activity at human GLP-1R expressed in HEK293 cells assessed as cAMP accumulation incubated for 30 mins by LANCE ultra cAMP assay; type: functional, cell-based
# [2] = target: T1, Glucagon-like peptide 1 receptor; test: Binding affinity to human GLP-1R assessed as association rate constant by SPR analysis; conditions: filed as agonist
# [3] = target: T1, Glucagon-like peptide 1 receptor; test: Partial agonist activity at LgBit-tagged GLP-1R (unknown origin) transfected in HEK293 cells co-transfected with Smbit-tagged beta-arrestin-1 assessed as beta-arrestin recruitment incubated for 5 mins by envision microplate reader analysis; type: functional, cell-based
# [4] = target: T1, Glucagon-like peptide 1 receptor; test: Partial agonist activity at LgBit-tagged GLP-1R (unknown origin) transfected in HEK293 cells co-transfected with Smbit-tagged beta-arrestin-1 assessed as beta-arrestin recruitment by measuring maximal efficacy incubated for 5 mins by envision microplate reader analysis relative to control; type: functional, cell-based
# [5] = Cmax in male ICR mouse at 2 mg/kg, iv measured after 24 hrs by LC-MS/MS analysis; type: ADME, organism-based; conditions: in vivo
# [6] = AUC (0 to t) in male ICR mouse at 2 mg/kg, iv measured after 24 hrs by LC-MS/MS analysis; type: ADME, organism-based; conditions: in vivo
# [7] = Half-life in male ICR mouse at 2 mg/kg, iv measured after 24 hrs by LC-MS/MS analysis; type: ADME, organism-based; conditions: in vivo
# [8] = MRT (0 to t) in male ICR mouse at 2 mg/kg, iv measured after 24 hrs by LC-MS/MS analysis; type: ADME, organism-based; conditions: in vivo
# [9] = Apparent volume of distribution in male ICR mouse at 2 mg/kg, iv measured after 24 hrs by LC-MS/MS analysis; type: ADME, organism-based; conditions: in vivo, read-out: Vz
# [10] = Clearance in male ICR mouse at 2 mg/kg, iv measured after 24 hrs by LC-MS/MS analysis; type: ADME, organism-based; conditions: in vivo
# [11] = Cmax in male ICR mouse at 10 mg/kg, po measured after 24 hrs by LC-MS/MS analysis; type: ADME, organism-based; conditions: in vivo
# [12] = Tmax in male ICR mouse at 10 mg/kg, po measured after 24 hrs by LC-MS/MS analysis; type: ADME, organism-based; conditions: in vivo
# [13] = AUC (0 to t) in male ICR mouse at 10 mg/kg, po measured after 24 hrs by LC-MS/MS analysis; type: ADME, organism-based; conditions: in vivo
# [14] = Half-life in male ICR mouse at 10 mg/kg, po measured after 24 hrs by LC-MS/MS analysis; type: ADME, organism-based; conditions: in vivo
# [15] = MRT (0 to t) in male ICR mouse at 10 mg/kg, po measured after 24 hrs by LC-MS/MS analysis; type: ADME, organism-based; conditions: in vivo
# [16] = Oral bioavailability in male ICR mouse at 10 mg/kg measured after 24 hrs by LC-MS/MS analysis; type: ADME, organism-based; conditions: in vivo
# [17] = target: T1, Glucagon-like peptide 1 receptor; test: Binding affinity to human GLP-1R assessed as dissociation rate constant (Kd) by SPR analysis
# [18] = target: T1, Glucagon-like peptide 1 receptor; test: Binding affinity to human GLP-1R assessed as dissociation constant (KD) by SPR analysis
# [19] = Protein binding in mouse plasma at 2 uM; type: ADME, cell-free; conditions: read-out: PPB (converted)
# [20] = Protein binding in mouse plasma at 2 uM assessed as unbound fraction; type: ADME, cell-free
# [21] = Unbound Cmax in male ICR mouse at 10 mg/kg, po measured after 24 hrs by LC-MS/MS analysis; type: ADME, organism-based; conditions: in vivo
# [22] = Subacute toxicity in male BALB/c mouse assessed as body weight loss at 150 mg/kg, po administered via gavage for 14 days; type: organism-based; conditions: in vivo, 336 h, time 14 day
# [23] = Subacute toxicity in male BALB/c mouse assessed as mortality at 150 mg/kg, po administered via gavage for 14 days; type: organism-based; conditions: in vivo, 336 h, time 14 day
# [24] = Subacute toxicity in male BALB/c mouse assessed as change in heart to body weight ratio at 150 mg/kg, po administered via gavage for 14 days; type: organism-based; conditions: in vivo, 336 h, time 14 day
# [25] = Subacute toxicity in male BALB/c mouse assessed as change in liver to body weight ratio at 150 mg/kg, po administered via gavage for 14 days; type: organism-based; conditions: in vivo, 336 h, time 14 day
# [26] = Subacute toxicity in male BALB/c mouse assessed as change in spleen to body weight ratio at 150 mg/kg, po administered via gavage for 14 days; type: organism-based; conditions: in vivo, 336 h, time 14 day
# [27] = Subacute toxicity in male BALB/c mouse assessed as change in lung to body weight ratio at 150 mg/kg, po administered via gavage for 14 days; type: organism-based; conditions: in vivo, 336 h, time 14 day
# [28] = Subacute toxicity in male BALB/c mouse assessed as change in kidney to body weight ratio at 150 mg/kg, po administered via gavage for 14 days; type: organism-based; conditions: in vivo, 336 h, time 14 day
# [29] = Subacute toxicity in male BALB/c mouse assessed as pathologic change in heart at 150 mg/kg, po administered via gavage for 14 days by H and E staining based analysis; type: organism-based; conditions: in vivo, 336 h, time 14 day
# [30] = Subacute toxicity in male BALB/c mouse assessed as pathologic change in lung at 150 mg/kg, po administered via gavage for 14 days by H and E staining based analysis; type: organism-based; conditions: in vivo, 336 h, time 14 day
# [31] = Subacute toxicity in male BALB/c mouse assessed as pathologic change in liver at 150 mg/kg, po administered via gavage for 14 days by H and E staining based analysis; type: organism-based; conditions: in vivo, 336 h, time 14 day
# [32] = Subacute toxicity in male BALB/c mouse assessed as pathologic change in spleen at 150 mg/kg, po administered via gavage for 14 days by H and E staining based analysis; type: organism-based; conditions: in vivo, 336 h, time 14 day
# [33] = Subacute toxicity in male BALB/c mouse assessed as pathologic change in kidney at 150 mg/kg, po administered via gavage for 14 days by H and E staining based analysis; type: organism-based; conditions: in vivo, 336 h, time 14 day
# [34] = Hepatotoxicity in male BALB/c mouse assessed as effect on ALT level at 150 mg/kg, po administered via gavage for 14 days; type: toxicity, organism-based; conditions: in vivo, 336 h, time 14 day
# [35] = Hepatotoxicity in male BALB/c mouse assessed as effect on AST level at 150 mg/kg, po administered via gavage for 14 days; type: toxicity, organism-based; conditions: in vivo, 336 h, time 14 day
# [36] = Nephrotoxicity in male BALB/c mouse assessed as effect on blood urea nitrogen level at 150 mg/kg, po administered via gavage for 14 days; type: toxicity, organism-based; conditions: in vivo, 336 h, time 14 day
# [37] = Nephrotoxicity in male BALB/c mouse assessed as decrease in creatinine level at 150 mg/kg, po administered via gavage for 14 days; type: toxicity, organism-based; conditions: in vivo, 336 h, time 14 day
# Mus musculus [38] = test: Antidiabetic activity in human GLP-1R knockin male mouse model assessed as reduction in blood glucose level at 2 mg/kg, IG preadministered with compound for 1 hrs followed by glucose administration for 3 hrs by oral glucose tolerance test; type: functional, organism-based; conditions: time 4.0 hrs
# Mus musculus [39] = test: Antidiabetic activity in human GLP-1R knockin male mouse model assessed as reduction in blood glucose level at 2 mg/kg, IG preadministered with compound for 1 hrs followed by first dose of glucose administration for 3 hrs and measured after 270 mins of second glucose administration by oral glucose tolerance test; type: functional, organism-based; conditions: time 510.0 min
# Mus musculus [40] = test: Appetite suppressing activity in human GLP-1R knockin male mouse model assessed as reduction in food intake at 30 mg/kg, sc measured after 2.5 to 12 hrs; type: functional, organism-based; conditions: time 2.5-12 hrs
# Mus musculus [41] = test: Appetite suppressing activity in human GLP-1R knockin male mouse model assessed as reduction in food intake at 30 mg/kg, sc measured at 12 to 24 hrs (light cycle); type: functional, organism-based; conditions: time 12-24 hrs
# [42] = Toxicity in human GLP-1R knockin male mouse model assessed as effect on AST level at 30 mg/kg, sc measured after 24 hrs; type: organism-based; conditions: in vivo
# [43] = Toxicity in human GLP-1R knockin male mouse model assessed as effect on ALT level at 30 mg/kg, sc measured after 24 hrs; type: organism-based; conditions: in vivo
# [44] = Toxicity in human GLP-1R knockin male mouse model assessed as effect on BUN level at 30 mg/kg, sc measured after 24 hrs; type: organism-based; conditions: in vivo
# [45] = Toxicity in human GLP-1R knockin male mouse model assessed as effect on creatinine level at 30 mg/kg, sc measured after 24 hrs; type: organism-based; conditions: in vivo
# [46] = Toxicity in human GLP-1R knockin male mouse model assessed as effect on heart pathology at 30 mg/kg, sc measured after 24 hrs by H and E staining based analysis; type: organism-based; conditions: in vivo
# [47] = Toxicity in human GLP-1R knockin male mouse model assessed as effect on lung pathology at 30 mg/kg, sc measured after 24 hrs by H and E staining based analysis; type: organism-based; conditions: in vivo
# [48] = Toxicity in human GLP-1R knockin male mouse model assessed as effect on liver pathology at 30 mg/kg, sc measured after 24 hrs by H and E staining based analysis; type: organism-based; conditions: in vivo
# [49] = Toxicity in human GLP-1R knockin male mouse model assessed as effect on spleen pathology at 30 mg/kg, sc measured after 24 hrs by H and E staining based analysis; type: organism-based; conditions: in vivo
# [50] = Toxicity in human GLP-1R knockin male mouse model assessed as effect on kidney pathology at 30 mg/kg, sc measured after 24 hrs by H and E staining based analysis; type: organism-based; conditions: in vivo
# T1 sequence (P43220 whole entry): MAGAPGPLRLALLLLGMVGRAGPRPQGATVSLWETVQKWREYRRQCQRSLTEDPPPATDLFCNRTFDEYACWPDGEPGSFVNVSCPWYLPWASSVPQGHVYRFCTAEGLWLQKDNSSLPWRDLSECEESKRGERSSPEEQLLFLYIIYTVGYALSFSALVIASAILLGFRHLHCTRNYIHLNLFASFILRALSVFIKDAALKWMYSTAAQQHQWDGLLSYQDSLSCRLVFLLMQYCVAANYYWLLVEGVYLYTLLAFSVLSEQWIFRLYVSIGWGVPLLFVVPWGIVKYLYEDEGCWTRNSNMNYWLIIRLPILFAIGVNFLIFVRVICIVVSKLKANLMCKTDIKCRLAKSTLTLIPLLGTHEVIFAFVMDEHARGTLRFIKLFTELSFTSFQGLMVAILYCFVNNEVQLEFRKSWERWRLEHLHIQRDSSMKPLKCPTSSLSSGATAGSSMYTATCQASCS
compound,measurement,setting,value
CC(C)[C@H](NCc1nc2ccc(C(=O)O)cc2n1C[C@@H]1CCO1)C(=O)Nc1cccc([Se]Cc2ccc(C#N)cc2F)n1,EC50,[1],> 200 µM
SEMAGLUTIDE,Ka,[2],7.94 10^5/M.s
COc1cc(C(F)(F)F)ccc1C[Se]c1cccc(N2C=NN(Cc3nc4c(F)cc(C(=O)O)cc4n3C[C@@H]3CCO3)CC2)n1,EC50,[3],> 200 µM
same,Emax,[4],28%
same,Cmax,[5],16500 ng/mL
same,AUC(0-t) at 24 h,[6],3720 ng·h/mL
same,half-life,[7],5.71 h
same,MRT last at 24 h,[8],0.39 h
same,Vd,[9],4.27 L/kg
same,clearance,[10],9.05 mL/min/kg
same,Cmax,[11],283 ng/mL
same,Tmax,[12],0.42 h
same,AUC(0-t) at 24 h,[13],582 ng·h/mL
same,half-life,[14],6.06 h
same,MRT last at 24 h,[15],3.21 h
same,bioavailability,[16],3.2%
COc1cc(C#N)ccc1C[Se]c1cccc(C2CCN(Cc3nc4ccc(C(=O)O)cc4n3C[C@@H]3CCO3)CC2)n1,EC50,[3],> 200 µM
same,Emax,[4],13%
same,Ka,[2],5.52 10^3/M.s
same,Kd,[17],5.53 10^-3/s
same,Kd,[18],1 µM
same,Cmax,[5],8110 ng/mL
same,AUC(0-t) at 24 h,[6],5460 ng·h/mL
same,half-life,[7],2.22 h
same,MRT last at 24 h,[8],0.77 h
same,Vd,[9],1.18 L/kg
same,clearance,[10],6.12 mL/min/kg
same,Cmax,[11],4960 ng/mL
same,Tmax,[12],0.5 h
same,AUC(0-t) at 24 h,[13],5540 ng·h/mL
same,half-life,[14],5.13 h
same,MRT last at 24 h,[15],1.91 h
same,bioavailability,[16],20.4%
same,fraction unbound at 2 µM,[19],0.02
same,fraction unbound at 2 µM,[20],0.02
same,fCmax,[21],99.21 ng/mL
same,Activity,[22],Non-toxic
same,Activity,[23],Non-toxic
same,Activity,[24],Non-toxic
same,Activity,[25],Non-toxic
same,Activity,[26],Non-toxic
same,Activity,[27],Non-toxic
same,Activity,[28],Non-toxic
same,Activity,[29],Non-toxic
same,Activity,[30],Non-toxic
same,Activity,[31],Non-toxic
same,Activity,[32],Non-toxic
same,Activity,[33],Non-toxic
same,Activity,[34],Non-toxic
same,Activity,[35],Non-toxic
same,Activity,[36],Non-toxic
same,Activity,[37],Toxic
same,Activity,Mus musculus [38],Active
same,Activity,Mus musculus [39],Active
same,Activity,Mus musculus [40],Active
same,Activity,Mus musculus [41],Active
same,Activity,[42],Non-toxic
same,Activity,[43],Non-toxic
same,Activity,[44],Non-toxic
same,Activity,[45],Non-toxic
same,Activity,[46],Non-toxic
same,Activity,[47],Non-toxic
same,Activity,[48],Non-toxic
same,Activity,[49],Non-toxic
same,Activity,[50],Non-toxic
